Experimental data as given in patent US20260097091A1, “ADMINISTRATION OF GLUTATHIONE TRISULFIDE TO AMELIORATE PERIPHERAL NEUROPATHY” (The General Hospital Corporation, priority 2022, published 2026).
pIC50: −log10 of the molar value.

What was measured:
[1] = tissue distribution of orally administered ^34S-labeled GSSSG by LC-MS/MS; assay type: in vivo, mice; conditions: 2 hours after oral ^34S-labelled GSSSG 50 mg/kg; mice
Description: To determine the tissue distribution of orally-administered GSSSG, ^34S-labelled GSSSG was administered by gavage to each of four mice. ^34S-labelled GSSSG was synthesized and provided by Kyowa Hakko Bio CO., LTD. Two hours after a single dose of ^34S-GSSSG, DRG, lumber spinal cord, brain, liver, and plasma were obtained and snap frozen for later analysis.
We examined whether administrated GSSSG via oral gavage reaches peripheral nervous system using liquid chromatography with tandem mass spectrometry (LC-MS/MS). Fifty mg/kg of ^34S-labeled GSSSG (in which the middle sulfur, that is a sulfane sulfur, was replaced to ^34S; G-^32S-^34S-^32S-G) was orally administered to mice. Two hours after administration, plasma and tissue from liver, brain, lumbar spinal cord, and lumbar DRG (L1 to L6) were collected and immediately frozen at −80° C. Tissues were homogenized with 5 mM of β-(4-hydroxyphenyl)ethyl iodoacetamide (HPE-IAM) (Santa Cruz, Cat No. SC-473766) and incubated for 20 minutes at 37° C. to promote HPE-IAM reaction that stabilizes persulfide residues. Proteins were removed by centrifugation at 15,000 g for 10 minutes at 4° C., and total protein concentration was measured by BCA assay. The supernatant was diluted by 0.1% formic acid for LC-MS/MS analysis. The amount of ^34S-labeled GSSSG was quantified in selective reaction monitoring (SRM) with precursor ion (647.14 m/z), product ion (389.1 m/z), and HCD (21 v) and normalized by protein concentration. The ratio of ^34S-labeled reactive sulfur species to endogenous (^32S) reactive sulfur species (GSSH, CysSSH, and CysSSSCys) were also calculated from their peak area measured by Dionex UltiMate 3000 RS UPLC-Orbitrap Exploris 480 mass spectrometer (Thermo Scientific Scientific, Waltham, MA, USA). In brief, samples were subjected to the UPLC system with a Hypersil Gold C-18 (100×2.1 mm, 3.0 μm, Thermo Fisher Scientific) column and they were eluted by using a linear methanol gradient of the mobile phase (0-90%, 15 minutes) in the presence of 0.1% formic acid at a flow rate of 0.2 ml/minutes at 40 degrees. The raw data were obtained by Compound Discoverer software 3.3. Molecular weight of reactive sulfur species combined with HPE-IAM were reported in previous studies.

[2] = tested on: MDA-MB-231 human breast cancer cells; test: MDA-MB-231 cell viability by LDH Cytotoxicity Detection assay; assay type: cell-based; conditions: 24 hours incubation
Description: To examine whether co-administration of GSSSG affects anti-tumor effects of paclitaxel, we conducted experiments using MDA-MB-231, a human breast cancer cell line (HTB-26, ATCC). Cells were cultured in the medium of 90% RPMI1640 (Corning, Cat No. 10-040-CV), 10% FBS, and 1% penicillin/streptomycin. After being seeded into a 96-well plate at the density of 20,000/well and cultured overnight, they were exposed to different concentrations of paclitaxel (0.125 μM, 0.25 μM, 0.5 μM, 1 μM, and 2 μM) and incubated for 24 hours. Cell viability was evaluated by LDH Cytotoxicity Detection Kit (Roche, Cat No. 11644793001). Briefly, a plate was centrifuged at 250×g for 10 minutes. Cells were washed with PBS and incubated with 100 μl of 1% Triton X-100 at 37° C. for 30 minutes. After mixing with assay enzyme for 30 minutes at 25° C., absorbance was measured at wavelength 492 nm to determine cell viability. Inhibitory effects of paclitaxel were calculated by half-maximal inhibitory concentration (IC50). We utilized the IC50 of paclitaxel obtained with LDH assay to examine the anti-tumor effect of paclitaxel and co-administration of GSSSG using the trypan blue exclusion assay. […] MDA-MB-231 cells were seeded 5.6×10,000/well in a 6-well plate and incubated overnight. […] After being stripped by 0.25% trypsin, live cells were counted under 0.04% trypan blue. Five wells were evaluated per group.

SMILES | plasma level of GSSSG [1] [nM] | pIC50 [2]
N[C@@H](CCC(=O)N[C@@H](CSSSC[C@H](NC(=O)CC[C@H](N)C(=O)O)C(=O)NCC(=O)O)C(=O)NCC(=O)O)C(=O)O [GSSSG, glutathione trisulfide] | 58 | –
CC(=O)O[C@H]1C(=O)[C@@]2(C)[C@H]([C@H](OC(=O)c3ccccc3)[C@]3(O)C[C@H](OC(=O)[C@H](O)[C@@H](NC(=O)c4ccccc4)c4ccccc4)C(C)=C1C3(C)C)[C@]1(OC(C)=O)CO[C@@H]1C[C@@H]2O [paclitaxel, Paclitaxel, reference compound] | – | 5.78
